We go through 28 molecules from US11136296B2, “Substituted N-arylethyl-2-arylquinoline-4-carboxamides and use thereof” (Bayer Aktiengesellschaft, priority 2017, dated 2021).

The structures appear in SMILES notation. pIC50: −log10 of the molar value.

FP receptor, sequence (P43088 whole entry): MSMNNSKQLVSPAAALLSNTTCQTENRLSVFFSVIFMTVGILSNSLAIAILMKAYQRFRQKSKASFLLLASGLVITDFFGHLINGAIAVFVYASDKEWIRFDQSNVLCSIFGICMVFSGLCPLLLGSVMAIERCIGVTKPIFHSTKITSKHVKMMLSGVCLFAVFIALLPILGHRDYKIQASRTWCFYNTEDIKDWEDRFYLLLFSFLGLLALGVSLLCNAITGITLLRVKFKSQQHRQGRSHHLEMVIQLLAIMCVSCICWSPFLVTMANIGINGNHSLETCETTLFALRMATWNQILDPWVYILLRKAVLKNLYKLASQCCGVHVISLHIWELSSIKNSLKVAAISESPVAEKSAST

This assay concerns the target FP receptor (Homo sapiens (Human), UniProt P43088). The experiment in a line: In vitro test of inhibition of human FP receptor activity (PGF2α-induced calcium flux in FP-expressing CHEM1 cells). In kind it is cell-based. The settings on record: PGF2α-induced (2 nM) calcium flux in FP-expressing CHEM1 cells; some as mean values from multiple determinations. The text has this:
Table 1 below lists the IC50 values from this assay for individual working examples of the invention (some as mean values from multiple independent individual determinations): […]
(Calcium flux is commonly read through the fluorescence of an indicator in the cells.)
Take `COc1cccc(F)c1C(CNC(=O)c1c(C)c(-c2ccccc2)nc2ccc(Br)cc12)CC(=O)O` (single isomer, unassigned; (-)) [Example 128, (−)-4-{[(6-Bromo-3-methyl-2-phenylquinolin-4-yl)carbonyl]amino}-3-(2-fluoro-6-methoxyphenyl)butanoic Acid]: the negative logarithm of the IC50 (pIC50) (usually −log10 of the IC50, conventionally taken in molar units) was 6.96.
In the case of `CCOc1ccccc1C(CNC(=O)c1c(C)c(-c2ccccc2)nc2ccc(Br)cc12)CC(=O)O` (single isomer, unassigned; (-)) [Example 130, (−)-4-{[(6-Bromo-3-methyl-2-phenylquinolin-4-yl)carbonyl]amino}-3-(2-ethoxyphenyl)butanoic Acid], the negative logarithm of the IC50 (pIC50) is 6.49.
As for `COc1ccc(F)cc1C(C)(CNC(=O)c1c(C)c(-c2ccccc2)nc2ccc(Br)cc12)CC(=O)O` (single isomer, unassigned; (-)) [Example 134, (−)-4-{[(6-Bromo-3-methyl-2-phenylquinolin-4-yl)carbonyl]amino}-3-(5-fluoro-2-methoxyphenyl)-3-methylbutanoic Acid], the pIC50 is 6.10.
`COc1c(F)cc(F)cc1C(C)(CNC(=O)c1c(C)c(-c2ccccc2)nc2ccc(Br)cc12)CC(=O)O` (single isomer, unassigned; (-)) [Example 137, (−)-4-{[(6-Bromo-3-methyl-2-phenylquinolin-4-yl)carbonyl]amino}-3-(3,5-difluoro-2-methoxyphenyl)-3-methylbutanoic Acid]: the pIC50 was 6.36.
For `COc1cc(F)ccc1C(C)(CNC(=O)c1c(C)c(-c2ccccc2)nc2ccc(Br)cc12)CC(=O)O` (single isomer, unassigned; (-)) [Example 140, (−)-4-{[(6-Bromo-3-methyl-2-phenylquinolin-4-yl)carbonyl]amino}-3-(4-fluoro-2-methoxyphenyl)-3-methylbutanoic Acid], the negative logarithm of the IC50 (pIC50) was < 6.00.
`COc1cccc(F)c1C(C)(CNC(=O)c1c(C)c(-c2ccccc2)nc2ccc(Br)cc12)CC(=O)O` (single isomer, unassigned; (-)) [Example 144, (−)-4-{[(6-Bromo-3-methyl-2-phenylquinolin-4-yl)carbonyl]amino}-3-(2-fluoro-6-methoxyphenyl)-3-methylbutanoic Acid]: the pIC50 is 6.89.
Take `Cc1c(-c2ccccc2)nc2ccc(Br)cc2c1C(=O)NC(C)C(CC(=O)O)c1ccccc1Cl` (single isomer, unassigned; (-)) [Example 146, (−)-4-{[(6-Bromo-3-methyl-2-phenylquinolin-4-yl)carbonyl]amino}-3-(2-chlorophenyl)pentanoic Acid]: the pIC50 is < 6.00.
Turning to `Cc1c(-c2ccccc2)nc2ccc(Br)cc2c1C(=O)NC(C)C(CC(=O)O)c1ccccc1Cl` (single isomer, unassigned; (-)) [Example 149, (−)-4-{[(6-Bromo-3-methyl-2-phenylquinolin-4-yl)carbonyl]amino}-3-(2-chlorophenyl)pentanoic Acid], the pIC50 was < 6.00.
Take `Cc1c(-c2ccccc2)nc2ccc(Br)cc2c1C(=O)NCC(CCC(=O)O)c1ccccc1Cl` (single isomer, unassigned; (-)) [Example 152, (−)-5-{[(6-Bromo-3-methyl-2-phenylquinolin-4-yl)carbonyl]amino}-4-(2-chlorophenyl)pentanoic Acid]: the pIC50 was 8.10.
For the molecule `Cc1c(-c2ccccc2)nc2ccc(Br)cc2c1C(=O)NCC(C)(CCC(=O)O)c1ccccc1Cl` (single isomer, unassigned; (-)) [Example 155, (−)-5-{[(6-Bromo-3-methyl-2-phenylquinolin-4-yl)carbonyl]amino}-4-(2-chlorophenyl)-4-methylpentanoic Acid], the pIC50 is 7.22.
Turning to `Cc1c(-c2ccccc2)nc2ccc(Br)cc2c1C(=O)NCC(CCC(=O)O)c1c(F)cccc1Cl` (single isomer, unassigned; (-)) [Example 158, (−)-5-{[(6-Bromo-3-methyl-2-phenylquinolin-4-yl)carbonyl]amino}-4-(2-chloro-6-fluorophenyl)pentanoic Acid], the pIC50 is 8.46.
`Cc1ccccc1C(CCC(=O)O)CNC(=O)c1c(C)c(-c2ccccc2)nc2ccc(Br)cc12` (single isomer, unassigned; (-)) [Example 161, (−)-5-{[(6-Bromo-3-methyl-2-phenylquinolin-4-yl)carbonyl]amino}-4-(2-methylphenyl)pentanoic Acid]: the pIC50 was 8.09.
In the case of `Cc1c(-c2ccccc2)nc2ccc(Br)cc2c1C(=O)NCC(CCC(=O)O)c1cc(F)ccc1Cl` (single isomer, unassigned; (-)) [Example 164, (−)-5-{[(6-Bromo-3-methyl-2-phenylquinolin-4-yl)carbonyl]amino}-4-(2-chloro-5-fluorophenyl)pentanoic Acid], the pIC50 was 7.82.
As to `COc1ccccc1C(CCC(=O)O)CNC(=O)c1c(C)c(-c2ccccc2)nc2ccc(Br)cc12` (single isomer, unassigned; (-)) [Example 167, (−)-5-{[(6-Bromo-3-methyl-2-phenylquinolin-4-yl)carbonyl]amino}-4-(2-methoxyphenyl)pentanoic Acid], the negative logarithm of the IC50 (pIC50) was 7.59.
Regarding `Cc1c(-c2ccccc2)nc2ccc(Br)cc2c1C(=O)NCC(C)(CCC(=O)O)c1cc(F)ccc1Cl` (single isomer, unassigned; (-)) [Example 170, (−)-5-{[(6-Bromo-3-methyl-2-phenylquinolin-4-yl)carbonyl]amino}-4-(2-chloro-5-fluorophenyl)-4-methylpentanoic Acid], the pIC50 is 6.96.
For the molecule `Cc1c(-c2ccccc2)nc2ccc(Br)cc2c1C(=O)NCC(CCC(=O)O)c1ccccc1F` (single isomer, unassigned; (-)) [Example 176, (−)-5-{[(6-Bromo-3-methyl-2-phenylquinolin-4-yl)carbonyl]amino}-4-(2-fluorophenyl)pentanoic Acid], the pIC50 was 7.92.
Next, `Cc1c(-c2ccccc2)nc2ccc(Br)cc2c1C(=O)NCC(CCC(=O)O)c1ccccc1OC(F)F` (single isomer, unassigned; (-)) [Example 179, (−)-5-{[(6-Bromo-3-methyl-2-phenylquinolin-4-yl)carbonyl]amino}-4-[2-(difluoromethoxy)phenyl]pentanoic Acid]: 8.39; `Cc1c(-c2ccccc2)nc2ccc(Br)cc2c1C(=O)NCC(CCC(=O)O)c1c(F)cccc1F` (single isomer, unassigned; (-)) [Example 182, (−)-5-{[(6-Bromo-3-methyl-2-phenylquinolin-4-yl)carbonyl]amino}-4-(2,6-difluorophenyl)pentanoic Acid]: 8.14.
In the case of `Cc1c(-c2ccccc2)nc2ccc(Br)cc2c1C(=O)NCC(CCC(=O)O)c1cccc(F)c1Cl` (single isomer, unassigned; (-)) [Example 185, (−)-5-{[(6-Bromo-3-methyl-2-phenylquinolin-4-yl)carbonyl]amino}-4-(2-chloro-3-fluorophenyl)pentanoic Acid], the negative-log IC50 (pIC50) was 8.41.
`Cc1c(-c2ccccc2)nc2ccc(Br)cc2c1C(=O)NCC(c1ccccc1Cl)N(C)CC(=O)O` (single isomer, unassigned; (-)) [Example 188, (−)-N-[2-{[(6-Bromo-3-methyl-2-phenylquinolin-4-yl)carbonyl]amino}-1-(2-chlorophenyl)ethyl]-N-methylglycine]: the negative-log IC50 (pIC50) was 7.27.
Regarding `Cc1c(-c2ccccc2)nc2ccc(Br)cc2c1C(=O)NCC(OCC(=O)O)c1ccccc1Cl` (single isomer, unassigned; (-)) [Example 193, (−)-[2-{[(6-Bromo-3-methyl-2-phenylquinolin-4-yl)carbonyl]amino}-1-(2-chlorophenyl)ethoxy]acetic Acid], the pIC50 is 6.82.
Take `Cc1c(-c2ccccc2)nc2ccc(Br)cc2c1C(=O)NCC(SCC(=O)O)c1ccccc1Cl` (single isomer, unassigned; (-)) [Example 196, (−)-{[2-{[(6-Bromo-3-methyl-2-phenylquinolin-4-yl)carbonyl]amino}-1-(2-chlorophenyl)ethyl]sulfanyl}acetic Acid]: the pIC50 is 7.92.
Consider `Cc1c(-c2ccccc2)nc2ccc(Br)cc2c1C(=O)NCC(CCC(=O)O)c1c(Cl)ccc(F)c1F` (single isomer, unassigned; (-)) [Example 201, (−)-5-{[(6-Bromo-3-methyl-2-phenylquinolin-4-yl)carbonyl]amino}-4-(6-chloro-2,3-difluorophenyl)pentanoic Acid], for which the pIC50 is 8.92.
Consider `Cc1c(-c2ccccc2)nc2ccc(Br)cc2c1C(=O)NCC(CCC(=O)O)c1ccccc1C(F)(F)F` (single isomer, unassigned; (-)) [Example 204, (−)-5-{[(6-Bromo-3-methyl-2-phenylquinolin-4-yl)carbonyl]amino}-4-[2-(trifluoromethyl)phenyl]pentanoic Acid], for which the pIC50 was 8.43.
In the case of `Cc1ccc(F)cc1C(CCC(=O)O)CNC(=O)c1c(C)c(-c2ccccc2)nc2ccc(Br)cc12` (single isomer, unassigned; (-)) [Example 207, (−)-5-{[(6-Bromo-3-methyl-2-phenylquinolin-4-yl)carbonyl]amino}-4-(5-fluoro-2-methylphenyl)pentanoic Acid], the pIC50 is 8.00.
Consider `Cc1c(-c2ccccc2)nc2ccc(Br)cc2c1C(=O)NCC(CCC(=O)O)c1ccccc1OC(F)(F)F` (single isomer, unassigned; (-)) [Example 211, (−)-5-{[(6-Bromo-3-methyl-2-phenylquinolin-4-yl)carbonyl]amino}-4-[2-(trifluoromethoxy)phenyl]pentanoic Acid], for which the pIC50 was 8.77.
Consider `O=C(O)CCC(CNC(=O)c1c(Cl)c(-c2ccccc2)nc2ccc(Br)cc12)c1ccccc1Cl` (single isomer, unassigned; (-)) [Example 213, (−)-5-{[(6-Bromo-3-chloro-2-phenylquinolin-4-yl)carbonyl]amino}-4-(2-chlorophenyl)pentanoic Acid], for which the pIC50 is 8.55.
As for `O=C(O)CCC(CNC(=O)c1c(Cl)c(-c2ccccc2)nc2ccc(Br)cc12)c1ccccc1C(F)(F)F` (single isomer, unassigned; (-)) [Example 216, (−)-5-{[(6-Bromo-3-chloro-2-phenylquinolin-4-yl)carbonyl]amino}-4-[2-(trifluoromethyl)phenyl]pentanoic Acid], the pIC50 was 8.30.
